# Measured values reported in the OligoGym collection.
# These antisense oligonucleotides have a phosphorothioate backbone; sugars and methylation of C are not fully specified.
# Target: AKT1
# Details: ASO
# Note: test concentration or dose not given here.
row,Sequence,remaining target (mRNA or protein) (fraction of control)
1,AAAGTTGAATGTTGTAAA,0.9
2,TACTCCCCTCGTTTGTGC,≥ 1
3,CACAGAGAAGTTGTTGAG,0.78
4,GTGCCGCAAAAGGTCTTC,0.34

# Target: ETS2
# Details: ASO
row,Sequence,remaining target (mRNA or protein) (fraction of control)
1,GAGGCAGCCTGGTCAAGA,0.61
2,GGGTAATTCTGTGTCTGC,0.96
3,CAGCTCCAGGAGAAACTG,≥ 1
4,GGGTCACTCCTCTCTTGG,0.75
5,CTTAAAAGCACTGTGAGT,0.63
6,TTTCTTGGTTTTCTTTGA,≥ 1
7,CATTCATGCCGAACCTCT,≥ 1
8,TGGCTTATTGAGGCAGAG,0.94
9,GCGTGCAGTTCCTCGGGC,0.81
10,GGCCGGCTCAGGGTGGTC,0.51
11,TTGCAGTGTTTGCTCTTC,≥ 1
12,AACCCGTTGCACATCCAG,≥ 1
13,CAAGTTGCTGCCTGGGAA,0.39
14,CTGCCTTTCCTGGGTCCT,≥ 1
15,GTCCATATTCTTGATTCC,≥ 1
16,CACAGTTGGCGGAGTCAT,0.45
17,GGACGGCCGAGTGGAGGG,0.81
18,GGAACGGAGGTGAGGTGT,0.61
19,TGTTCCCAGAGAATGTCA,0.63
20,TGCCAGCTCCAGAAAGCG,0.84

row,Sequence,remaining target (mRNA or protein) (fraction of control)
1,CGTCCCACGGACTGCCAG,≥ 1
2,GGAGCTGAGCCGAGACTT,0.51
3,GGGACCCATCAAAGGTGT,0.66
4,GGCCACTTTCCTGGACAT,≥ 1
5,TCGTAATAGTAGCGTAAG,0.85
6,CCAGAGACGATCAGGGAG,≥ 1
7,CATGGTTGTTTCCTTCCC,≥ 1
8,TAAGGCTTGACTCATCAC,≥ 1
9,AGCTGTCCGCACCGTTCT,≥ 1
10,TTCTTTGGAATGCCCAGG,0.93
11,CCGACGTCTTGTGGATGA,0.45
12,GAAGCCACTGGCATACCT,0.64
13,GTGCCAAAACCTAATGTA,0.66
14,CGGCGCTTGGTCGGGACG,≥ 1
15,ATCCGTCTCCAGTCCAGC,0.8
16,AATAGTCTGTGTGTGTCC,≥ 1
17,TTTCCTCTTTCCCCACCG,≥ 1
18,GGCTGGCGCTTGAGTGTC,0.7
19,GCAGGTATAACTGGTTTG,≥ 1
20,AGGAGCGGGAGGAGGAGG,0.87

# Target: GNAI1
# Details: ASO
row,Sequence,remaining target (mRNA or protein) (fraction of control)
1,CAAGTCATTCAAATAGTA,≥ 1
2,TAGATAAGGGCTGTAATG,0.87
3,GTTGAGTCGGGATGTAAT,≥ 1
4,TTAAGAACATTTCAATAA,0.99
5,TAATAGTCTGTCATTCAG,0.95
6,TTTGAAAGTAAAATGGGT,≥ 1
7,TGTGTCCTTTCTTTTATT,0.63
8,GCATTCGGTTCATTTCTT,0.58
9,AGCCCTAATGATAGCAAT,0.33
10,AACCAGGTCGTAGTCACT,0.45
11,AAACTAAAGTCATAAATA,≥ 1
12,TCACCAAAGTCTATCTTC,≥ 1
13,TTCTGTCCAAGTCATTCA,0.64
14,CAATTCCTGTAGTTTTCA,0.8
15,CCACTATCTTTCCACAAT,0.84
16,TTATGTTATTTCCAAAGC,0.87
17,CCGGGCTGAGTCACCAAA,0.31
18,TCCCCATAGCCCTAATGA,0.21
19,ACTGCTTTGTATTGTTTA,0.94
20,ATTCAAATAGTATGCTGC,≥ 1

row,Sequence,remaining target (mRNA or protein) (fraction of control)
1,CTCCTCTTCTGAATAACC,0.79
2,ATAAAGCCTTCTTCAGCA,0.78
3,TTCAACCTCCCCATAGCC,0.81
4,TCATTTCTTCATCTTCAG,≥ 1
5,TGATCCAAAGGCAGGTGT,0.27
6,ATTTCCTTTGTGTCCTTT,0.41
7,CATGAACATAAATAAAGC,≥ 1
8,TCATCTTACTCCGCTCCA,0.66
9,AGAACAACTTTGGTCAAG,0.88
10,CACATTCTTAGTATCTGT,0.85
11,TCTTTTATTGAGGTCTTC,≥ 1
12,AATCCTAAGTTGCCACTC,0.4
13,CTTTTACCAGATTCACCA,0.96
14,AGTCTATCTTCAACCTCC,0.92
15,CCTTCTGTTACTTTCAGT,0.75
16,TAAAAGAGACCACAATCT,0.81
17,TCACCCTAAAATCCTAAG,≥ 1
18,TTTCCACAATCTCTTTAT,0.92
19,CAAAGCCATCACCCTAAA,0.43
20,GTATAATGGATGTATCTG,0.86

# Target: GNAI3
# Details: ASO
row,Sequence,remaining target (mRNA or protein) (fraction of control)
1,ATGCAGCACCTCAACTTC,0.4
2,GTGTTTCTACAATGCCTG,0.37
3,CCACCATCTCGCCATAAC,0.77
4,CTCAACACTCCACACTGT,0.9
5,ACTCCACACTGTAGTAAC,0.45
6,AATGTAGTTAGACTGGGA,0.46
7,GTCTGACTTTAGCATCTC,0.56
8,AATTCCAATGTCTGACTT,0.51
9,GAGTTGGAATGTAGTTAG,0.56
10,TCACTCTCGTCCGAAGAA,0.41
11,TAAAGTTATTCTTCTCTT,0.88
12,TGGCACAGGTGAAGTGAG,0.29
13,TATTGGAACCTGTGTATT,0.54
14,TCAACTTCACATCTTCCA,0.62
15,ATCTTGCTTCGCTCCACT,0.63

# Target: MAP2K7
# Details: ASO
row,Sequence,remaining target (mRNA or protein) (fraction of control)
1,CACCTCCAGCGTCTCGTAGC,0.45
2,ATGGCGATGAAGACGTCCGT,0.84
3,TCATAGTCCGGCTTGGTGGG,≥ 1
4,AGACAAACACCTCGTGCCGA,0.88
5,TCCAGGTTGAGGTCGATCCT,0.68
6,ACTGTCCTGTTGCCAGCTCC,0.58
7,AGTCCGCGGTGACTCAGGTC,0.87
8,ACTCAGGTCTTCGCCATGAC,0.76
9,GCCATCTTCCCCGCCGCCAC,0.75
10,GCCGTTAGTCCGCGGTGACT,0.72
11,CTGAGGATGGCGAGCGGCTG,≥ 1
12,GCGGGACAGCTTCTGTTCCA,≥ 1
13,CGCCGCCATCTTCCCCGCCG,0.99
14,TTCTCCTGCTTCAGCTTTGC,0.69
15,CAGGGAGGACGCCGCCATCT,≥ 1
16,GGAGGGCTTGACGTCGCGGT,0.96
17,CATCTTCCCCGCCGCCACCG,0.68
18,TCCAGGGAGGACGCCGCCAT,0.64
19,TAGCCCGTCTGCTTCATGAT,0.76
20,TGTCATCTTGCCCAGAATGC,0.68

row,Sequence,remaining target (mRNA or protein) (fraction of control)
1,GACGCCGCCATCTTCCCCGC,0.7
2,CCGCCATCTTCCCCGCCGCC,0.9
3,CGCGCACCGCCCGGCCGCCC,0.46
4,TGAACGTCCCAAAGCACTGC,0.86
5,TTCCGGAAGCGCATCTTCCA,0.86
6,CGTCAGTCCGGCAGACAAAC,0.91
7,CCCAGGCTCCATACGTCGGC,0.74
8,GCACCACATCCAGGTCCATG,0.58
9,CCCCGAGAAGCCCATGTGTC,0.69
10,CTGGCTCAAGGAACGCCGTT,≥ 1
11,TCTTCCCCGCCGCCACCGCC,0.77
12,AGGACGCCGCCATCTTCCCC,0.7
13,AGAGCTTGATCTGGCCCCGC,0.84
14,AGGCGGCACAGCCGGCGCTC,0.95
15,GAGTCCACCAGGCGGCCGCT,0.66
16,GGTAGTACAGCGCCTTCACA,0.82
17,CTTTAGTAAGGCAGTCTTTG,0.7
18,GGGAGGACGCCGCCATCTTC,0.34
19,GGAGCGCCGCATTTGCTTAA,0.75
20,GGTTGGCCGCCGGCCAAAGC,≥ 1
